Results on 1 compound are retold here after patent US7504095B2, “Method for obtaining precursor Z and use thereof for the production of a means for therapy of human molybdenum cofactor deficiency” (Technische Universitaet Braunschweig, priority 2004, dated 2009).

The nature of series [1]: Oxidation of precursor Z to compound Z in 2x PBS buffer, UV-VIS. It is filed as physicochemical. On the procedure: (a) Oxidation of precursor Z to compound Z. (b) UV-VIS absorption spectrum of 22 μM precursor Z after 17 h incubation at room temperature in 2× PBS-Buffer (pH 6.9). The spectra were recorded and indicated in time intervals following dilution in Buffer. (c) […] of oxidation of precursor Z by recording the absorption at 350 nm from the spectra shown in (b).
In order to obtain larger amounts, we used a bacterial strain, which enriched precursor Z on the basis of a defect in the conversion to MPT. A further improvement in the yield could be achieved by over expression of the protein MoaA and MoaC, which catalyse the first step of Moco-synthesis. This leads to an approximately 5000-fold enrichment of precursor Z in comparison to wild type cells, with an average yield of 40 μg per L E. coli culture and a final concentration of 30-140 μg/ml. […] Under physiological and aerobic conditions at pH 6.9 (2×PBS buffer) a 22 μM solution of precursor Z was oxidized within 5 h completely to compound ZBe^9. The half time of precursor Z at pH 6.9 could be determined with 62±12 (FIG. 5c).

A short description of series [2]: Oxidation of precursor Z in D2O/DCl on exposure to air, followed by 1H-NMR. It is filed as physicochemical. The conditions noted are these: D2O and DCl, exposed to air. On the procedure:
One- (1D) and two-dimensional (2D) ^1H-NMR-correlation spectra (COSY) were recorded at 300 K with a Bruker Avance DMX 600 NMR-spectrometer, which is linked to the dominating resonance of deuterium from the solvent D2O. Chemical shifts are indicated in ppm relative to the background signal of the solvent (4.80 ppm) and couplings in Hz. Precursor Z containing samples (100-200 μg) were freeze-dried and resuspended in 700 μl degassed D2O and 2 μl 36% DCl. For avoidance of oxidation, the pipette was gased for 5 minuites with nitrogen. These solutions were stable enough for recording both 1D- and 2D-COSY-spectra. Subsequent exposure of the solution to air caused the oxidation of the precursor Z to the well-described main single product, compound Z, and this reaction was monitored at regular intervals by recording 1D-^1H-spectra. Under normal conditions, this reaction is concluded after 14 days in D2O and DCl.

For series [3], the target named is E. coli MPT-Synthase (Escherichia coli, UniProt P30749). Put plainly: In vitro conversion of precursor Z to MPT with purified MPT-synthase. The class given is biochemical. Particulars: double excess of MPT-synthase, HPLC formA analysis. An excerpt: The biological activity of the purified precursor Z could be verified by a quantitive in vitro conversion to MPT tinder use of purified E. coli MPT-Synthase^B26 . […] In order to determine the amount of precursor Z needed for a successful reestablishment of Moco-biosynthesis in MOCS1-deficient mice, we carried out an in vitro reconstitution with various amount of precursor Z in protein-raw extract from the liver of five day old MOCS1-deficient mice carried out (FIG. 6a). In the case of the employment of 134 ng precursor Z/mg protein a near complete reestablishment of Moco-biosynthesis could be achieved, while 27 ng precursor Z led to a reconstitution of approximately 50%. The protein total concentration of the liver extract amounted to 6 mg (obtained from 50 mg total liver tissue) which necessitated a total required amount of precursor Z of 0.8 μg for each animal for complete reestablishment of the MPT-synthesis under in vitro conditions. Accordingly for an adult animal with a body weight of 20 g and an approximate mass or weight of the liver of 1 g, 16 μg precursor Z was needed for complete reestablishment, however only 3 μg for an activation of 50%. […]

Series [4] has as its system MOCS1-deficient mice. Put plainly: Water labyrinth learning test. It is filed as in vivo. On the procedure:
FIG. 7: Ability to train precursor Z-treated MOCS1-deficient mice in a water labyrinth. The values represented a cross section of six wildtype- (wt, black bars) and six precursor Z treated MOCS1-deficient mice (MOCS1 ^−/−, white bars). […] C, time (of a total of 120 seconds), spent in the correct sector (without platform), which were learned in passes A and B.
Avoidance of light was tested in the light/dark box, in which the animals were placed into the light area and the time was determined until the animals sought out the darker area. […] The results were compared with wild-type controls. The mice were sequentially introduced into all four sectors and the time was measured until the animals found and climbed onto the platform (FIG. 7). […] In a second test series, the average swim time was reduced to 20-25% of the first test both in the “knockout” mice as well as with the control animals. In a third test series, the platform was removed and the time was measured that the mice spent in the “correct” sector—the sector that previously contained the platform. Both groups spent approximately 50% of the time in the correct sector.

In series [5] the test system is MOCS1-deficient mice. Put plainly: Cessation or delayed initiation of precursor Z treatment. It is filed as in vivo. From the text:
In order to test whether the treatment with precursor Z can be halted after a certain developmental stage, we stopped the injection of precursor Z in homozygouse mutants on days 1 (n=3), 12 (n=4), 26-28 (n=3) and 64-68 (n=2) after birth. A single injection of precursor Z after day one led to death after 15-18 days. […] At the age of 26-28 days, in which the previously described critical period falls, the cessation of administration of precursor Z led to death within 4-7 days. Cessation after 64-68 days led to reduced exploration of the environment after 7 days and to death after 9-10 days. In order to successfully correct the phenotype, the administration with precursor Z had to be initiated within 5 days following birth.

In series [6] the test system is MOCS1-deficient mice. Put plainly: Morphologic examination of tissues of treated knockout mice. It is filed as in vivo. The procedure: FIG. 8: Morphologic comparison of kidneys (a, b) and brain sections (c,d) of wildtype- (a,c) and precursor Z-treated MOCS1-deficient mice, (b,d). Treatment was with 2-4 μg each third day. (a) Regular kidneys with normal glomerulus (arrow), characteristic developed tubuli and thin (narrow) interstices (200×). […] Proximal tubuli were extended (28+/−19%). […] The glomerulus is normal (arrow). (c,d) Corresponding coronal brain sections (Cx, Cortex; Hi, Hippocampus; Str, Striatum; Th, Thalamus; Hy, Hypothalamus) of wildtype-(c) and precursor Z-treated MOCS1^−/− mice (d).
Tissue from heart, skeletal muscle, lung, pancreas, thyroid, spleen and liver (data not shown) as well as brain (FIG. 8c-d) were examined.

The structures appear in SMILES notation.

Sequence of E. coli MPT-Synthase (P30749 whole entry): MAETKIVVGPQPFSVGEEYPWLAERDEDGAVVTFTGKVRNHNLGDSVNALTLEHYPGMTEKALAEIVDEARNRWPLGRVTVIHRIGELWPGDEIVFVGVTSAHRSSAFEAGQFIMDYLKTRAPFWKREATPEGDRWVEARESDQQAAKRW
Sequence of E. coli MPT-Synthase (P30748 whole entry, further chain): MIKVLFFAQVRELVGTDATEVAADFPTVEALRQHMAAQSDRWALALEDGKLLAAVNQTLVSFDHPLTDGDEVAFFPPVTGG

As to `Nc1nc2c(c(=O)[nH]1)N[C@@H]1[C@H](N2)O[C@@H]2COP(=O)(O)O[C@@H]2C1(O)O` [precursor Z], in series [1] (2x PBS-Buffer pH 6.9, room temperature), the “stability under physiological conditions” value was “stable under physiological conditions”. In series [1] (pH 6.9, 2xPBS buffer, aerobic, 22 μM, room temperature), the “half time of precursor Z” value is recorded as 62±12. Also, the “time to complete oxidation to compound Z” value in series [1] (pH 6.9, 2xPBS buffer, physiological and aerobic conditions, 22 μM solution) is recorded as no more than 5 h. Besides, the “time until oxidation to compound Z is concluded” value in series [2] is given as 14 days. Moreover, in series [3], the “conversion of precursor Z into MPT” value is given as “almost completely”. Besides, the “water labyrinth: finding the platform versus wild-type controls” value in series [4] (first series of tests) is reported as “more rapidly than the wild-type control animals”. In addition, the “water labyrinth: average swim time as % of the first test” value in series [4] (second test series) is recorded as 20-25%. Further, in series [4] (third test series, platform removed), the “water labyrinth: time spent in the correct sector” value was “approximately 50%”. Also, in series [5] (cessation after 64-68 days), the death after cessation lay in the range of 9 to 10 days and the “onset of reduced exploration of the environment after cessation” value amounted to 7 days. This compound gave a death after cessation in series [5] (cessation at the age of 26-28 days) of 4 to 7 days. In addition, in series [5] (cessation on day 12), the “death after the last injection” value was 7 to 9 days and the “onset of limited exploration of the environment after the last injection” value turned out to be 6 days. Moreover, the “improvement of the phenotype or the life expectancy” value in series [5] (initiation of treatment after 7 or 10 days) is recorded as “no significant improvement”. Besides, the “time after birth within which administration had to be initiated to correct the phenotype” value in series [5] (mouse, in vivo) is recorded as no more than 5 days. For the same compound, in series [5] (single injection, treatment stopped on day 1), the time of death lay in the range of 15 to 18 days. Further, in series [6] (2-4 μg each third day), the “enlargement of the matrix of the interstices” value is reported as 13+/−13%, the “extension of proximal tubuli” value was 28+/−19% and the kidney stones result is “numerous stones in the tubuli”. Also, in series [6] (beginning day 20 after birth), the kidney morphology entry is recorded as “bilateral abnormal kidneys”. Moreover, the morphology besides kidney result in series [6] (heart, skeletal muscle, lung, pancreas, thyroid, spleen, liver, brain) is given as “no further morphologic abnormality”.
